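The compound was tested at five concentrations on cells cultured in 96-well plates, with a 48-hour exposure period. GI50 is the concentration that inhibits growth by half.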 Calls of active or inactive are those of the source. Rule as the data show it: active = GI50 up to about 1.1 µM and inactive = higher.
Experiments:
Assay in all cases: inhibition of tumour cell growth, NCI panel, 48 h
786-0 = tested on: 786-0
A549 = tested on: A549
ACHN = tested on: ACHN
BT-549 = tested on: BT-549
CAKI-1 = tested on: CAKI-1
CCRF-CEM = tested on: CCRF-CEM
COLO 205 = tested on: COLO 205
DU-145 = tested on: DU-145
EKVX = tested on: EKVX
HCT-116 = tested on: HCT-116
HCT-15 = tested on: HCT-15
HL-60 = tested on: HL-60
HOP-62 = tested on: HOP-62
HOP-92 = tested on: HOP-92
HT-29 = tested on: HT-29
Hs-578T = tested on: Hs-578T
IGROV-1 = tested on: IGROV-1
K562 = tested on: K562
KM12 = tested on: KM12
LOX IMVI = tested on: LOX IMVI
M14 = tested on: M14
MCF7 = tested on: MCF7
MDA-MB-231 = tested on: MDA-MB-231
MDA-MB-435 = tested on: MDA-MB-435
MDA-N = tested on: MDA-N
MOLT-4 = tested on: MOLT-4
Malme-3M = tested on: Malme-3M
NCI-H226 = tested on: NCI-H226
NCI-H23 = tested on: NCI-H23
NCI-H522 = tested on: NCI-H522
NCI/ADR-RES = tested on: NCI/ADR-RES
OVCAR-3 = tested on: OVCAR-3
OVCAR-4 = tested on: OVCAR-4
OVCAR-5 = tested on: OVCAR-5
OVCAR-8 = tested on: OVCAR-8
PC-3 = tested on: PC-3
RPMI-8226 = tested on: RPMI-8226
RXF 393 = tested on: RXF 393
SF-268 = tested on: SF-268
SF-295 = tested on: SF-295
SF-539 = tested on: SF-539
SK-MEL-28 = tested on: SK-MEL-28
SK-MEL-2 = tested on: SK-MEL-2
SK-MEL-5 = tested on: SK-MEL-5
SK-OV-3 = tested on: SK-OV-3
SN12C = tested on: SN12C
SNB-19 = tested on: SNB-19
SNB-75 = tested on: SNB-75
SR = tested on: SR
SW-620 = tested on: SW-620
T47D = tested on: T47D
TK-10 = tested on: TK-10
U-251 = tested on: U-251
UACC-257 = tested on: UACC-257
UO-31 = tested on: UO-31
A498 = tested on: A498
HCC 2998 = tested on: HCC 2998
NCI-H460 = tested on: NCI-H460
UACC-62 = tested on: UACC-62

With `N#CC(NNC(=O)c1c(Cl)c(Cl)c(Cl)c(Cl)c1-c1nc2cc(C(=O)c3ccccc3)ccc2[nH]1)c1ccccc1` (stereo not drawn) the GI50 (786-0) was 12.2 µM (inactive), the GI50 (A549) was 6.76 µM (inactive) and the GI50 (ACHN) was 10.6 µM (inactive). For the same molecule, the GI50 (BT-549) was 9.2 µM (inactive), the GI50 (CAKI-1) was 21.4 µM (inactive) and the GI50 (CCRF-CEM) was 4.02 µM (inactive). The GI50 (COLO 205) was 10 µM (inactive), the GI50 (DU-145) was 24.3 µM (inactive) and the GI50 (EKVX) was 17.9 µM (inactive). The GI50 (HCT-116) was 10.6 µM (inactive), the GI50 (HCT-15) was 4.74 µM and the GI50 (HL-60) was 4.69 µM (inactive). For the same molecule, the GI50 (HOP-62) was 7.82 µM (inactive), the GI50 (HOP-92) was 15 µM (inactive) and the GI50 (HT-29) was 8.53 µM (inactive). The GI50 (Hs-578T) was 6.78 µM (inactive), the GI50 (IGROV-1) was 12.5 µM (inactive) and the GI50 (K562) was 3.24 µM (inactive). The GI50 (KM12) was 7.45 µM (inactive), the GI50 (LOX IMVI) was 9.35 µM (inactive) and the GI50 (M14) was 7.46 µM (inactive). For the same molecule, the GI50 (MCF7) was 2.9 µM (inactive), the GI50 (MDA-MB-231) was 9.2 µM (inactive) and the GI50 (MDA-MB-435) was 2.82 µM (inactive). The GI50 (MDA-N) was 2.56 µM (inactive), the GI50 (MOLT-4) was 3.22 µM (inactive) and the GI50 (Malme-3M) was 8.57 µM (inactive). The GI50 (NCI-H226) was 9.2 µM (inactive), the GI50 (NCI-H23) was 7.45 µM (inactive) and the GI50 (NCI-H522) was 3.39 µM (inactive). The GI50 (NCI/ADR-RES) was 3.43 µM (inactive), the GI50 (OVCAR-3) was 4.57 µM (inactive) and the GI50 (OVCAR-4) was 7.13 µM (inactive). The GI50 (OVCAR-5) was 26.5 µM (inactive), the GI50 (OVCAR-8) was 23.7 µM (inactive) and the GI50 (PC-3) was 7.14 µM (inactive). The GI50 (RPMI-8226) was 6.85 µM (inactive), the GI50 (RXF 393) was 3.18 µM (inactive) and the GI50 (SF-268) was 7.83 µM (inactive). For the same molecule, the GI50 (SF-295) was 3.68 µM (inactive), the GI50 (SF-539) was 3.18 µM (inactive) and the GI50 (SK-MEL-28) was 17.8 µM (inactive). For the same molecule, the GI50 (SK-MEL-2) was 8.91 µM (inactive), the GI50 (SK-MEL-5) was 3.4 µM (inactive) and the GI50 (SK-OV-3) was 13 µM (inactive). The GI50 (SN12C) was 6.61 µM (inactive), the GI50 (SNB-19) was 12.4 µM (inactive) and the GI50 (SNB-75) was 3.95 µM (inactive). For the same molecule, the GI50 (SR) was 2.84 µM (inactive), the GI50 (SW-620) was 8.87 µM (inactive) and the GI50 (T47D) was 4.79 µM (inactive). The GI50 (TK-10) was 21.8 µM (inactive), the GI50 (U-251) was 15.8 µM (inactive) and the GI50 (UACC-257) was 9.98 µM (inactive). For the same molecule, the GI50 (UO-31) was 14 µM (inactive).

In the case of `C=C(CO[Si](C)(C)C(C)(C)C)C(C)=O`, the GI50 (786-0) was 17.2 µM (inactive), the GI50 (A498) was > 100 µM (inactive) and the GI50 (A549) was > 100 µM (inactive). The GI50 (ACHN) was 26.5 µM (inactive), the GI50 (BT-549) was 20.2 µM (inactive) and the GI50 (CAKI-1) was 22.3 µM (inactive). The GI50 (CCRF-CEM) was 0.678 µM (active), the GI50 (COLO 205) was 24.5 µM (inactive) and the GI50 (DU-145) was > 100 µM (inactive). The GI50 (EKVX) was > 100 µM (inactive), the GI50 (HCC 2998) was 26.1 µM (inactive) and the GI50 (HCT-116) was 13.3 µM (inactive). For the same molecule, the GI50 (HCT-15) was 13.9 µM, the GI50 (HL-60) was 13.8 µM (inactive) and the GI50 (HOP-62) was > 100 µM (inactive). For the same molecule, the GI50 (HT-29) was 19.5 µM (inactive), the GI50 (Hs-578T) was 25.8 µM (inactive) and the GI50 (IGROV-1) was 25.5 µM (inactive). For the same molecule, the GI50 (K562) was 6.73 µM (inactive), the GI50 (KM12) was 58.1 µM (inactive) and the GI50 (LOX IMVI) was 4.94 µM (inactive). The GI50 (M14) was 13.1 µM (inactive), the GI50 (MCF7) was 23.3 µM (inactive) and the GI50 (MDA-MB-231) was 20.3 µM (inactive). For the same molecule, the GI50 (MDA-MB-435) was 17.6 µM (inactive), the GI50 (MDA-N) was 15.3 µM (inactive) and the GI50 (MOLT-4) was 2.18 µM (inactive). For the same molecule, the GI50 (Malme-3M) was 16.6 µM (inactive), the GI50 (NCI-H226) was > 69.3 µM (inactive) and the GI50 (NCI-H23) was 26.3 µM (inactive). The GI50 (NCI-H460) was > 77.4 µM (inactive), the GI50 (NCI-H522) was 3.78 µM (inactive) and the GI50 (NCI/ADR-RES) was 26.9 µM (inactive). The GI50 (OVCAR-3) was 20.4 µM (inactive), the GI50 (OVCAR-4) was 21 µM (inactive) and the GI50 (OVCAR-5) was 31 µM (inactive). The GI50 (OVCAR-8) was 18.8 µM (inactive), the GI50 (PC-3) was 26.9 µM (inactive) and the GI50 (RPMI-8226) was 4.88 µM (inactive). For the same molecule, the GI50 (RXF 393) was 14.5 µM (inactive), the GI50 (SF-268) was 31.4 µM (inactive) and the GI50 (SF-295) was > 100 µM (inactive). The GI50 (SF-539) was 39.1 µM (inactive), the GI50 (SK-MEL-28) was 17.8 µM (inactive) and the GI50 (SK-MEL-2) was 20.5 µM (inactive). The GI50 (SK-MEL-5) was 14.6 µM (inactive), the GI50 (SK-OV-3) was > 89.3 µM (inactive) and the GI50 (SN12C) was 27.7 µM (inactive). The GI50 (SNB-19) was > 86.1 µM (inactive), the GI50 (SNB-75) was 20 µM (inactive) and the GI50 (SR) was 3.55 µM (inactive). For the same molecule, the GI50 (SW-620) was 8.15 µM (inactive), the GI50 (T47D) was 21.6 µM (inactive) and the GI50 (TK-10) was > 100 µM (inactive). For the same molecule, the GI50 (U-251) was > 63.2 µM (inactive), the GI50 (UACC-257) was 18 µM (inactive) and the GI50 (UACC-62) was 15.7 µM (inactive). The GI50 (UO-31) was > 46.9 µM (inactive).

— ChEMBL document CHEMBL1201862, “PubChem BioAssay data set” (2004)
